Results reported in paper PMC10247784, “Physiological activation of human and mouse bitter taste receptors by bile acids” (Communications Biology, 2023).

Assays:
[1] = test system: T2R02 of Latimeria chalumnae; parameters: method as in PMID 33355666; conditions: cited from earlier work
mouse Tas2r105 = molecular target: T1, mouse Tas2r105 (Mus musculus, UniProt Q9JKT4); experiment: Calcium imaging assay (FLIPR), HEK293T-Gα16gust44 cells transfected with mouse Tas2r105; assay type: cell-based
T1 construct: expressed in transfected cells; host or cells: HEK293T-Gα16gust44
T1 sequence (Q9JKT4 1-300): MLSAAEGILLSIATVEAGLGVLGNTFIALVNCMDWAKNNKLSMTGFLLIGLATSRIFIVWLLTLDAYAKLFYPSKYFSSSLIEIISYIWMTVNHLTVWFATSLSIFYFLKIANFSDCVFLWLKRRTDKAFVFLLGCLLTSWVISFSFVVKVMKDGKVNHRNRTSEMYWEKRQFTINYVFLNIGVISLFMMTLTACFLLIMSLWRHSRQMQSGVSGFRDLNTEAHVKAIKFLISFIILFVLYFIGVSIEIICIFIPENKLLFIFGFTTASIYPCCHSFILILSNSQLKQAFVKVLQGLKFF

RLU (mouse Tas2r105; Time 0 s): 0 RLU
RLU (mouse Tas2r105; Time 2 s): -7.941 RLU
RLU (mouse Tas2r105; Time 4 s): 8.425 RLU
RLU (mouse Tas2r105; Time 6 s): -2.576 RLU
RLU (mouse Tas2r105; Time 8 s): 14.8013 RLU
RLU (mouse Tas2r105; Time 12 s): -9.724 RLU
RLU (mouse Tas2r105; Time 14 s): -8.452 RLU
RLU (mouse Tas2r105; Time 16 s): 1.889 RLU
RLU (mouse Tas2r105; Time 18 s): -2.18 RLU
RLU (mouse Tas2r105; Time 18.781 s): -20.0658 RLU
RLU (mouse Tas2r105; Time 20.781 s): -17.0266 RLU
RLU (mouse Tas2r105; Time 22.781 s): -39.9091 RLU
RLU (mouse Tas2r105; Time 24.781 s): 0.577 RLU
RLU (mouse Tas2r105; Time 26.781 s): -0.6161 RLU
RLU (mouse Tas2r105; Time 28.781 s): 4.903 RLU
RLU (mouse Tas2r105; Time 30.781 s): -6.367 RLU
RLU (mouse Tas2r105; Time 32.781 s): -0.4375 RLU
RLU (mouse Tas2r105; Time 34.781 s): 4.775 RLU
RLU (mouse Tas2r105; Time 36.781 s): -8.6591 RLU
RLU (mouse Tas2r105; Time 38.781 s): -14.3055 RLU
RLU (mouse Tas2r105; Time 40.781 s): 9.418 RLU
RLU (mouse Tas2r105; Time 42.781 s): -11.7018 RLU
RLU (mouse Tas2r105; Time 44.781 s): -11.9371 RLU
RLU (mouse Tas2r105; Time 46.781 s): 4.597 RLU
RLU (mouse Tas2r105; Time 48.781 s): 27.0511 RLU
RLU (mouse Tas2r105; Time 50.781 s): -9.756 RLU
RLU (mouse Tas2r105; Time 52.781 s): 20.1786 RLU
RLU (mouse Tas2r105; Time 54.781 s): 19.4961 RLU
RLU (mouse Tas2r105; Time 56.781 s): 5.269 RLU
RLU (mouse Tas2r105; Time 58.781 s): 38.5167 RLU
RLU (mouse Tas2r105; Time 60.781 s): 24.5618 RLU
RLU (mouse Tas2r105; Time 62.781 s): 36.5379 RLU
RLU (mouse Tas2r105; Time 64.781 s): 21.9337 RLU
RLU (mouse Tas2r105; Time 66.781 s): 35.0054 RLU
RLU (mouse Tas2r105; Time 68.781 s): 34.4928 RLU
RLU (mouse Tas2r105; Time 70.781 s): 42.8161 RLU
RLU (mouse Tas2r105; Time 72.781 s): 53.1321 RLU
RLU (mouse Tas2r105; Time 74.781 s): 54.3186 RLU
RLU (mouse Tas2r105; Time 76.781 s): 66.018 RLU
RLU (mouse Tas2r105; Time 78.781 s): 45.8125 RLU
RLU (mouse Tas2r105; Time 80.781 s): 59.5249 RLU
RLU (mouse Tas2r105; Time 82.781 s): 62.7416 RLU
RLU (mouse Tas2r105; Time 84.781 s): 68.7087 RLU
RLU (mouse Tas2r105; Time 86.781 s): 90.9377 RLU
RLU (mouse Tas2r105; Time 88.781 s): 81.07 RLU
RLU (mouse Tas2r105; Time 90.781 s): 72.636 RLU
RLU (mouse Tas2r105; Time 92.781 s): 97.4301 RLU
RLU (mouse Tas2r105; Time 94.781 s): 105.551 RLU
RLU (mouse Tas2r105; Time 96.781 s): 100.341 RLU
RLU (mouse Tas2r105; Time 98.781 s): 103.309 RLU
RLU (mouse Tas2r105; Time 100.781 s): 117.485 RLU
RLU (mouse Tas2r105; Time 102.781 s): 130.646 RLU
RLU (mouse Tas2r105; Time 104.781 s): 147.286 RLU
RLU (mouse Tas2r105; Time 106.781 s): 108.305 RLU
RLU (mouse Tas2r105; Time 108.781 s): 142.084 RLU
RLU (mouse Tas2r105; Time 110.781 s): 147.264 RLU
RLU (mouse Tas2r105; Time 112.781 s): 118.273 RLU
RLU (mouse Tas2r105; Time 114.781 s): 167.002 RLU
RLU (mouse Tas2r105; Time 116.781 s): 149.721 RLU
RLU (mouse Tas2r105; Time 118.781 s): 160.265 RLU
RLU (mouse Tas2r105; Time 120.781 s): 160.404 RLU
RLU (mouse Tas2r105; Time 122.781 s): 193.86 RLU
RLU (mouse Tas2r105; Time 124.781 s): 179.508 RLU
RLU (mouse Tas2r105; Time 126.781 s): 161.679 RLU
RLU (mouse Tas2r105; Time 128.781 s): 158.603 RLU
RLU (mouse Tas2r105; Time 130.781 s): 180.418 RLU
RLU (mouse Tas2r105; Time 132.781 s): 180.045 RLU
RLU (mouse Tas2r105; Time 134.781 s): 177.913 RLU
RLU (mouse Tas2r105; Time 136.781 s): 194.619 RLU
RLU (mouse Tas2r105; Time 137.562 s): 177.939 RLU
RLU (mouse Tas2r105; Time 143.562 s): 180.507 RLU
RLU (mouse Tas2r105; Time 149.562 s): 188.634 RLU
RLU (mouse Tas2r105; Time 155.562 s): 199.157 RLU
RLU (mouse Tas2r105; Time 161.562 s): 206.349 RLU
RLU (mouse Tas2r105; Time 167.562 s): 208.396 RLU
RLU (mouse Tas2r105; Time 173.562 s): 211.199 RLU
RLU (mouse Tas2r105; Time 179.562 s): 201.145 RLU
RLU (mouse Tas2r105; Time 185.562 s): 195.662 RLU
RLU (mouse Tas2r105; Time 191.562 s): 211.659 RLU
RLU (mouse Tas2r105; Time 197.562 s): 209.959 RLU
RLU (mouse Tas2r105; Time 203.562 s): 191.361 RLU
RLU (mouse Tas2r105; Time 209.562 s): 208.831 RLU
RLU (mouse Tas2r105; Time 215.562 s): 204.186 RLU
RLU (mouse Tas2r105; Time 221.562 s): 168.101 RLU
RLU (mouse Tas2r105; Time 227.562 s): 191.058 RLU
RLU (mouse Tas2r105; Time 233.562 s): 174.166 RLU
RLU (mouse Tas2r105; Time 239.562 s): 185.934 RLU
RLU (mouse Tas2r105; Time 245.562 s): 176.351 RLU
RLU (mouse Tas2r105; Time 293.562 s): 157.143 RLU
RLU (mouse Tas2r105; Time 299.562 s): 147.048 RLU
RLU (mouse Tas2r105; Time 305.562 s): 138.332 RLU
RLU (mouse Tas2r105; Time 311.562 s): 135.378 RLU
RLU (mouse Tas2r105; Time 317.562 s): 138.908 RLU
RLU (mouse Tas2r105; Time 323.562 s): 128.724 RLU
RLU (mouse Tas2r105; Time 329.562 s): 125.639 RLU
RLU (mouse Tas2r105; Time 335.562 s): 124.441 RLU
RLU (mouse Tas2r105; Time 341.562 s): 111.174 RLU
RLU (mouse Tas2r105; Time 347.562 s): 105.923 RLU
RLU (mouse Tas2r105; Time 353.562 s): 95.2183 RLU
RLU (mouse Tas2r105; Time 359.562 s): 94.5256 RLU
Activation threshold concentration Tas2r105 (mouse Tas2r105; p < 0.01 vs empty vector): 10 µM
SMILES: C[C@H](CCC(=O)O)[C@H]1CC[C@H]2[C@@H]3CC[C@@H]4C[C@H](O)CC[C@]4(C)[C@H]3C[C@H](O)[C@]12C [Deoxycholic Acid, deoxycholic acid]
Activation of T2R02 [1]: activate
